# System: Penicillium sp. CBS 109899 phytase (wild type, SEQ ID NO: 3), in crude fungal extract
# Test: Michaelis-Menten constants of the phytase contained in the crude fungal extract (phosphate release from sodium phytate, method of Shimizu)
# Format: biochemical
# Details: substrate sodium phytate, 250 mM acetate buffer with 1 mM CaCl2, pH 5.5, 37° C.
# Method: The measurement of phytase activity is based on the method of Shimizu (1992, Biosci. Biotech. Biochem. 56(8), 1266-1269). The principle of this method consists in measuring the amount of inorganic phosphate released during the enzymatic reaction of the phytase with its substrate (solution of sodium phytate prepared at 10 g/l in a 250 mM acetate buffer containing 1 mM CaCl2, pH 5.5). The amount of inorganic phosphate released is measured by reaction of this phosphate with a chromogenic reagent (1 volume of iron sulfate at 10.8% mixed extemporaneously with 4 volumes of ammonium molybdate at 0.012M H2SO4). This reaction leads, in highly acidic medium, to the formation of a colored phosphomolybdate complex (in the presence of Fe^2+), and the amount of complex formed is quantified by measuring the absorbance at 700 nm of the colored solution generated, on a spectrophotometer.
# Three reactions are carried out in parallel in order to produce enzymatic kinetics at 10, 20 and 30 minutes at 37° C. […] The sample interference is determined by adding the 20% trichloroacetic acid and then the phytic acid to the crude extract, which may or may not be diluted. […] The intensity of the blue coloration is measured by spectrophotometry at 700 nm. […] The enzymatic activity is determined using the rate of appearance of the phosphate in the course of the enzymatic kinetics. […]
structure (smiles),measurement,setting,value
O=P(O)(O)O[C@H]1[C@H](OP(=O)(O)O)[C@@H](OP(=O)(O)O)[C@H](OP(=O)(O)O)[C@@H](OP(=O)(O)O)[C@H]1OP(=O)(O)O [sodium phytate],Vmapp (maximum reaction rate),,1.425 μmol of phosphate released per minute and per mg of sample
same,Km,"substrate concentrations and incubation times modified, read-out: Kmapp",550 µM
